Literature values in US20070042953A1, “Antiepileptogenic complex of albumin with docosahexaenoate” (priority 2005, published 2007).

Columns and labels:
[1] = system: patients with chronic epilepsy; conditions: nutritional supplementation, first 6 weeks
[2] = system: rat brain cells or hippocampal slices

CCC=CCC=CCC=CCC=CCC=CC/C=C\CCC(=O)[O-].[Na+] [DHA, cis-4,7,10,13,16,19-Docosahexaenoic acid, sodium salt]
seizure frequency [1]: reduce seizure frequency in the first 6 weeks, but the effect was not sustained
epileptic activity in vitro [2]: attenuate epileptic activity
